Data reported in patent US12258338B2, “Modulators of the integrated stress response pathway” (EVOTEC INTERNATIONAL GMBH, priority 2019, dated 2025).

test system: ATF4; test: HEK-ATF4 High Content Imaging assay (prevention of Tunicamycin induced ISR; ATF4 signal ratio between nucleus and cytoplasm); assay type: cell-based; settings: Homo sapiens; Wild-type HEK293 cells, Tunicamycin induced ISR, 6 h; read-out: IIEK-ATF4 Activity
Protocol: HEK-ATF4 High Content Imaging Assay
Example compounds were tested in the HEK-ATF4 High Content Imaging assay to assess their pharmacological potency to prevent Tunicamycin induced ISR. Wild-type HEK293 cells were plated in 384-well imaging assay plates at a density of 12,000 cells per well in growth medium (containing DMEM/F12, 10% FBS, 2 mM L-Glutamine, 100 U/mL Penicillin-100 μg/mL Streptomycin) and incubated at 37° C., 5% CO2. 24 h later, the medium was changed to 50 μL assay medium per well (DMEM/F12, 0.3% FBS, 2 mM L-Glutamine, 100 U/mL Penicillin-100 μg/mL Streptomycin). Example compounds were serially diluted in DMSO, spotted into intermediate plates and prediluted with assay medium containing 3.3 μM Tunicamycin to give an 11-fold excess of final assay concentration. In addition to the example compound testing area, the plates also contained multiples of control wells for assay normalization purposes, wells containing Tunicamycin but no example compounds (High control), as well as wells containing neither example compound nor Tunicamycin (Low control). The assay was started by transferring 5 μL from the intermediate plate into the assay plates, followed by incubation for 6 h at 37° C., 5% CO2. Subsequently, cells were fixed (4% PFA in PBS, 20 min at r.t.) and submitted to indirect ATF4 immunofluorescence staining (primary antibody rabbit anti ATF4, clone D4B8, Cell Signaling Technologies; secondary antibody Alexa Fluor 488 goat anti-rabbit IgG (H+L), Thermofisher Scientific). Nuclei were stained using Hoechst dye (Thermofisher Scientific), and plates were imaged on an Opera Phenix High Content imaging platform equipped with 405 nm and 488 nm excitation. Finally, images were analyzed using script based algorithms. The main readout HEK-ATF4 monitored the ATF4 signal ratio between nucleus and cytoplasm. Tunicamycin induced an increase in the overall ATF4 ratio signal, which was prevented by ISR modulating example compounds. In addition, HEK-CellCount readout was derived from counting the number of stained nuclei corresponding to healthy cells. This readout served as an internal toxicity control.

SMILES | IC50 [nM]
O=C(COc1ccc(Cl)c(F)c1F)N[C@H]1CC[C@H](c2nnc(OCCC(F)(F)F)o2)NC1 [Example 21, 2-(4-chloro-2,3-difluorophenoxy)-N-[(3S,6R)-6-[5-(3,3,3-trifluoropropoxy)-1,3,4-oxadiazol-2-yl]piperidin-3-yl]acetamide] | 500 to 2000
COCCN1C[C@H](NC(=O)COc2ccc(Cl)c(F)c2)CC[C@H]1c1nnc(-c2ccc(Cl)cc2)o1 [Example 48, 2-(4-chloro-3-fluoro-phenoxy)-N-[(3R,6S)-6-[5-(4-chlorophenyl)-1,3,4-oxadiazol-2-yl]-1-(2-methoxyethyl)piperidin-3-yl]acetamide] | 500 to 2000
O=C(COc1ccc(C(F)(F)F)cc1)N[C@H]1CC[C@H](c2nnc(OCCC(F)(F)F)o2)NC1 [Example 19, 2-[4-(trifluoromethyl)phenoxy]-N-[(3S,6R)-6-[5-(3,3,3-trifluoropropoxy)-1,3,4-oxadiazol-2-yl]piperidin-3-yl]acetamide] | 500 to 2000
O=C(COc1ccc(Cl)c(F)c1)N[C@H]1CC[C@H](c2nnc(-c3ccc(Cl)cc3)o2)NC1=O (racemic) [Example 37, Rac-2-(4-chloro-3-fluorophenoxy)-N-[6-[5-(4-chlorophenyl)-1,3,4-oxadiazol-2-yl]-2-oxopiperidin-3-yl]acetamide] | 1 to 500
CC(COc1nnc([C@H]2CC[C@H](NC(=O)COc3ccc(Cl)c(F)c3)CN2)o1)C(F)(F)F (stereo partly drawn) [Example 63, 2-(4-chloro-3-fluorophenoxy)-N-[(3S,6R)-6-[5-(3,3,3-trifluoro-2-methylpropoxy)-1,3,4-oxadiazol-2-yl]piperidin-3-yl]acetamide] | 500 to 2000
O=C(COc1ccc(F)c(Cl)c1)N[C@H]1CC[C@H](c2nnc(OCCC(F)(F)F)o2)NC1 [Example 18, 2-(3-chloro-4-fluorophenoxy)-N-[(3S,6R)-6-[5-(3,3,3-trifluoropropoxy)-1,3,4-oxadiazol-2-yl]piperidin-3-yl]acetamide] | 500 to 2000
O=C(N[C@H]1CC[C@H](c2nnc(OCCC(F)(F)F)o2)NC1)C(F)(F)Oc1ccc(Cl)c(F)c1 [Example 24, 2-(4-chloro-3-fluorophenoxy)-2,2-difluoro-N-[(3S,6R)-6-[5-(3,3,3-trifluoropropoxy)-1,3,4-oxadiazol-2-yl]piperidin-3-yl]acetamide] | 500 to 2000
O=C(COc1ccc(Cl)c(F)c1)N[C@H]1CC[C@H](c2nnc(OCC(F)(F)C(F)(F)F)o2)NC1 [Example 73, 2-(4-chloro-3-fluorophenoxy)-N-[(3S,6R)-6-[5-(2,2,3,3,3-pentafluoropropoxy)-1,3,4-oxadiazol-2-yl]piperidin-3-yl]acetamide] | 500 to 2000
O=C(COc1ccc(Cl)c(Cl)c1)N[C@H]1CC[C@H](c2nnc(OCCC(F)(F)F)o2)NC1 [Example 20, 2-(3,4-dichlorophenoxy)-N-[(3S,6R)-6-[5-(3,3,3-trifluoropropoxy)-1,3,4-oxadiazol-2-yl]piperidin-3-yl]acetamide] | 1 to 500
CC(C)(C)OC(=O)N1C[C@@H](NC(=O)COc2ccc(Cl)c(F)c2)CC[C@@H]1c1nnc(-c2ccc(Cl)cc2)o1 [Example 39, tert-butyl (2R,5S)-5-[2-(4-chloro-3-fluorophenoxy)acetamido]-2-[5-(4-chlorophenyl)-1,3,4-oxadiazol-2-yl]piperidine-1-carboxylate] | 2000 to 15000
C[C@H](Oc1ccc(Cl)cc1)C(=O)N[C@H]1CC[C@H](c2nnc(-c3ccc(C(F)(F)F)cc3)o2)NC1 (single isomer, unassigned) [Example 107] | 2000 to 15000
O=C(COc1ccc(Cl)c(F)c1)N[C@H]1CC[C@H](c2nnc(OCCCC(F)(F)F)o2)NC1 [Example 74, 2-(4-chloro-3-fluorophenoxy)-N-[(3S,6R)-6-[5-(4,4,4-trifluorobutoxy)-1,3,4-oxadiazol-2-yl]piperidin-3-yl]acetamide] | 1 to 500

Further lines, results first:

IC50 [nM] | SMILES
2000 to 15000 | O=C(COc1ccc(Cl)cc1F)N[C@H]1CC[C@H](c2nnc(OCCC(F)(F)F)o2)NC1 [Example 17, 2-(4-chloro-2-fluorophenoxy)-N-[(3S,6R)-6-[5-(3,3,3-trifluoropropoxy)-1,3,4-oxadiazol-2-yl]piperidin-3-yl]acetamide]
1 to 500 | O=C(COc1ccc(Br)cc1)N[C@H]1CC[C@H](c2nnc(OCCC(F)(F)F)o2)NC1 [Example 27, 2-(4-bromophenoxy)-N-[(3S,6R)-6-[5-(3,3,3-trifluoropropoxy)-1,3,4-oxadiazol-2-yl]piperidin-3-yl]acetamide]
500 to 2000 | O=C(COc1cc(F)c(Cl)c(F)c1)N[C@H]1CC[C@H](c2nnc(OCCC(F)(F)F)o2)NC1 [Example 22, 2-(4-chloro-3,5-difluorophenoxy)-N-[(3S,6R)-6-[5-(3,3,3-trifluoropropoxy)-1,3,4-oxadiazol-2-yl]piperidin-3-yl]acetamide]
500 to 2000 | O=C(COc1ccc(Cl)c(F)c1)N[C@@H]1CC[C@H](c2nnc(-c3ccc(Cl)cc3)o2)NC1 [Example 36, 2-(4-chloro-3-fluorophenoxy)-N-[(3R,6R)-6-[5-(4-chlorophenyl)-1,3,4-oxadiazol-2-yl]piperidin-3-yl]acetamide]
1 to 500 | O=C(COc1ccc(C(F)(F)F)c(Cl)c1)N[C@H]1CC[C@H](c2nnc(OCCC(F)(F)F)o2)NC1 [Example 25, 2-[3-chloro-4-(trifluoromethyl)phenoxy]-N-[(3S,6R)-6-[5-(3,3,3-trifluoropropoxy)-1,3,4-oxadiazol-2-yl]piperidin-3-yl]acetamide]
2000 to 15000 | O=C(COc1cc(Cl)c(Cl)c(Cl)c1)N[C@H]1CC[C@H](c2nnc(OCCC(F)(F)F)o2)NC1 [Example 26, 2-(3,4,5-trichlorophenoxy)-N-[(3S,6R)-6-[5-(3,3,3-trifluoropropoxy)-1,3,4-oxadiazol-2-yl]piperidin-3-yl]acetamide]
2000 to 15000 | O=C(COc1cccc(C(F)(F)F)c1)N[C@H]1CC[C@H](c2nnc(OCCC(F)(F)F)o2)NC1 [Example 28, 2-[3-(trifluoromethyl)phenoxy]-N-[(3S,6R)-6-[5-(3,3,3-trifluoropropoxy)-1,3,4-oxadiazol-2-yl]piperidin-3-yl]acetamide]
1 to 500 | O=C(COc1ccc(C(F)(F)F)c(F)c1)N[C@H]1CC[C@H](c2nnc(OCCC(F)(F)F)o2)NC1 [Example 23, 2-[3-fluoro-4-(trifluoromethyl)phenoxy]-N-[(3S,6R)-6-[5-(3,3,3-trifluoropropoxy)-1,3,4-oxadiazol-2-yl]piperidin-3-yl]acetamide]
